Reference: ChEMBL document CHEMBL1126378, “Substrate selectivity of imidazole-appended dimethyl--cyclodextrin” (Bioorg Med Chem Lett, 1992)

Assays:
[1] = Kinetic parameter Kun for hydrolysis at 25 degrees Celsius using phosphate buffer in reaction with 3-[2-(4-imidazolyl)ethyl] […]
[2] = Ratio of kcat and Km was determined
[3] = Kinetic parameter kcat for hydrolysis at 25 degrees Celsius using phosphate buffer in reaction with 3-[2-(4-imidazolyl)ethyl] […]
[4] = Ratio of kcat and kun was determined
[5] = Kinetic parameter Km for hydrolysis at 25 degrees Celsius using phosphate buffer in reaction with 3-[2-(4-imidazolyl)ethyl] […]

Kun [1] | k cat/Km [2] | k cat [3] | k cat/Kuncat [4] | Km [5] | Structure (SMILES)
0.000129 s⁻¹ | 80.5 M⁻¹ s⁻¹ | 0.0312 s⁻¹ | 242 | 387 µM | CC(C)(C)OC(=O)NCC(=O)Oc1ccc([N+](=O)[O-])cc1
0.00144 s⁻¹ | 27.5 M⁻¹ s⁻¹ | 0.0371 s⁻¹ | 26 | 1350 µM | CC(=O)NC(C)C(=O)Oc1ccc([N+](=O)[O-])cc1 (stereo not given)
0.000562 s⁻¹ | 35.4 M⁻¹ s⁻¹ | 0.0519 s⁻¹ | 92 | 1470 µM | CC(=O)NCC(=O)Oc1ccc([N+](=O)[O-])cc1

The remaining lines, values behind:

Structure (SMILES) | Kun [1] | k cat/Km [2] | k cat [3] | k cat/Kuncat [4] | Km [5]
CC(=O)N[C@H](Cc1ccccc1)C(=O)Oc1ccc([N+](=O)[O-])cc1 | 0.000861 s⁻¹ | 49.7 M⁻¹ s⁻¹ | 0.0238 s⁻¹ | 28 | 478 µM
CC(=O)N[C@@H](Cc1ccccc1)C(=O)Oc1ccc([N+](=O)[O-])cc1 | 0.000861 s⁻¹ | 73.9 M⁻¹ s⁻¹ | 0.011 s⁻¹ | 13 | 148 µM
